{"source": "BindingDB's records for patent US20250188095", "about": "(Jiangsu Nhwa Pharmaceutical Co., 2025)", "target": "T1, Orexin/Hypocretin receptor type 1 (Homo sapiens, UniProt O43613)", "T1 sequence (O43613 whole entry)": "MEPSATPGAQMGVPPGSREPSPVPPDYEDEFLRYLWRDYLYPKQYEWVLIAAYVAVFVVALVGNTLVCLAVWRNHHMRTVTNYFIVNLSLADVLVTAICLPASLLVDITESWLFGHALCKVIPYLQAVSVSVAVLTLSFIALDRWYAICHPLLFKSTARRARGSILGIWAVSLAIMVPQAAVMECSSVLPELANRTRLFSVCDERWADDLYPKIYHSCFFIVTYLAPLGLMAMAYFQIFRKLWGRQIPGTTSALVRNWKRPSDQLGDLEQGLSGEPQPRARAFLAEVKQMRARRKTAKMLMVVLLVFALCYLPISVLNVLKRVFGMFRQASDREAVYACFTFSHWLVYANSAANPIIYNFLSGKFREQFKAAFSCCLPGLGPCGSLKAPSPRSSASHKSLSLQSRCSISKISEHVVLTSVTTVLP", "assay": "In Vitro Activity Assay", "experimental": "The cells were centrifuged at 1000 rpm for 5 min, and the supernatant was discarded. 3 mL of PBS was added, and the mixture was gently pipetted to be mixed well. The cells were centrifuged again at 1000 rpm for 5 min, and the supernatant was discarded.", "note": "pIC50: −log10 of the molar value."}
{"compound": "Cc1cc(C)nc(N2C[C@H]3CN(C(=O)c4c(-c5ccsc5)cn5ccccc45)C[C@H]3C2)n1", "note": "[US20250188095, Example 17]", "values": [{"measurement": "pIC50", "result": "< 6.00"}]}
